Results: patent US4181717A, “Ovulation enhancing peptides” (Research Corporation, priority 1978, dated 1980)
Residues, ends and D or L forms follow the SMILES beside them.

Test system: hamsters
Assay: Ovulation enhancement study in hamsters (ova count after 4 days of subcutaneous dosing)
Assay type: in vivo
Settings: ova counted on fifth day, untreated control mean 11.3
Procedure: In one study carried out with hamsters utilizing H--Thr--Arg--Lys--Arg--OH diacetate, each of six animals was injected subcutaneously at various dosage levels as indicated in the Table for each of the four days of the estrous cycle. On the fifth day, the animals were sacrificed, the left and right ovaries and oviducts of each animal collected, sectioned, stained, and the ova counted. The figures given in the second column are the mean numbers of ova for six animals at each dosage level. In a control group of 20 animals which were not treated with the ovulation enhancing compound, the mean number of ova counted under similar conditions was 11.3.

## C[C@@H](O)[C@H](N)C(=O)N[C@@H](CCCNC(=N)N)C(=O)N[C@@H](CCCCN)C(=O)N[C@@H](CCCNC(=N)N)C(=O)O [H--Thr--Arg--Lys--Arg--OH diacetate, H--Thr--Arg--Lys--Arg--OH] (H-TRKR-OH)
0.10 μgm/100 gm/day on each of the four days of the estrous cycle
  Number of OVA (mean number of ova for six animals): 13.7
0.30 μgm/100 gm/day on each of the four days of the estrous cycle
  Number of OVA (mean number of ova for six animals): 14.1
3.00 μgm/100 gm/day on each of the four days of the estrous cycle
  Number of OVA (mean number of ova for six animals): 15.5
30.00 μgm/100 gm/day on each of the four days of the estrous cycle
  Number of OVA (mean number of ova for six animals): 15.6
